Tested on: E. coli MS 200-1
Assay: Growth-based phenotypic high-throughput screen (OD600 Z-scores, choline vs glycerol NCE medium)
Format: cell-based, Escherichia coli MS 200-1
Conditions: 20 µg/mL; for Z-score from HTS, Zcho at T1 / Z-score from HTS, Zcho at T2: choline NCE medium; for Z-score from HTS, Zcho at T1 / Z-score from HTS, Zgly at T1: 7 h; for Z-score from HTS, Zcho at T2 / Z-score from HTS, Zgly at T2: 20 h; for Z-score from HTS, Zgly at T1 / Z-score from HTS, Zgly at T2: glycerol NCE medium
Experimental: The primary screen was performed in duplicate using the ChemDiv7 commercial library from the Institute of Chemistry and Cell Biology–Longwood (ICCB-L) Screening Facility, consisting of 49,128 compounds (Fig. 1D). Each compound was tested at a concentration of 20 µg/mL.
NCE media was adapted based on the “no carbon E” media as previously described ([14]), and contains 29 mM potassium phosphate monobasic, 29 mM potassium phosphate dibasic, 17 mM ammonium sodium phosphate dibasic, 40 mM sodium fumarate dibasic, 0.1% (wt/vol) casamino acids, and either 20 mM choline chloride or 3 g/L glycerol. This mixture was supplemented with 1 mM magnesium sulfate, 1% ATCC vitamin supplement, and 1% ATCC trace mineral supplement.
Compounds from the Institute of Chemistry and Cell Biology-Longwood Screening Facility (ICCB-L) commercial ChemDiv7 library were transferred to 384-well plates at 5 mg/mL in DMSO.
E. coli was grown anaerobically in LB media containing 1 mM choline chloride overnight at 37°C and then resuspended (two log-fold dilution) in either NCE media supplemented with 20 mM choline or 3 g/L glycerol for screening. The E. coli cultures were then added to the compound plates and incubated at 37°C anaerobically. The final concentration of compounds in culture was 20 µg/mL. OD600 was measured at 7 h and 20 h in duplicate compound plates. For control, 60 µg/mL kanamycin was used. Z-scores of each compound were calculated by measuring the number of standard deviations of each well’s OD600 with respect to the plate’s mean OD600. Compounds with a Z-score of less than –2 on choline but more than or equal to 0 on glycerol, in at least one replicate plate, were selected for further validation. Z’ was calculated using the control columns, as an internal quality control.

[1] = first value of cell (replicate plate)
[2] = second value of cell (replicate plate)

For `Cc1ccc(-c2cc(C(=O)NCCCN3CCc4ccccc4C3)c(C)[nH]2)cc1C` [Compound 5], the “Z-score from HTS, Zcho at T1” value [1] was −4.27, the “Z-score from HTS, Zcho at T1” value [2] was “–4.23” and the “Z-score from HTS, Zcho at T2” value [1] was 0.16. For the same molecule, the “Z-score from HTS, Zcho at T2” value [2] was “–0.06”, the “Z-score from HTS, Zgly at T1” value [1] was −1.42 and the “Z-score from HTS, Zgly at T1” value [2] was 0.61. The “Z-score from HTS, Zgly at T2” value [1] was 0.83 and the “Z-score from HTS, Zgly at T2” value [2] was 1.41.
